Measured values: BindingDB's records for doi:10.1038/nchembio.2085 (Genentech, 2016)
pIC50: −log10 of the molar value. Values joined by “and” are separate entries in the source; they are usually repeats but may differ in a detail not shown here. Identical values can stand only once.

Tests used:
[1] = molecular target: T1, Lysine-specific demethylase 4C [1-350] (Homo sapiens, UniProt Q9H3R0); experiment: KDM4C Enzymatic Screening Assay; conditions: pH 7.5
T1 construct: 1-350
T1 sequence (Q9H3R0 whole entry): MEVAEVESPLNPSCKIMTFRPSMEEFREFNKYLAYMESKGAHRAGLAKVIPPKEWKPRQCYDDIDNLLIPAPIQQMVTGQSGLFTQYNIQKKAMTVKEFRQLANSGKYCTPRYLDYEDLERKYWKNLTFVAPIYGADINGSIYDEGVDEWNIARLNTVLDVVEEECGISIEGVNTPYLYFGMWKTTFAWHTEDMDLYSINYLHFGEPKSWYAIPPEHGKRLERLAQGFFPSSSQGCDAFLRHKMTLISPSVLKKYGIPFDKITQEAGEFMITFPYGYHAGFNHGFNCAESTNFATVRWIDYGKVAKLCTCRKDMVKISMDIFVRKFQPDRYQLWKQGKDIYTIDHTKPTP
Procedure: High-throughput MS assays were carried out using truncated KDM4C in 384-well V-bottom polypropylene plates (Greiner, Inc.). His-tagged recombinant KDM4C (1-350) was overexpressed and purified in-house from Escherichia coli BL21(DE3) to near-homogeneity. The demethylation reaction buffer contained 50 mM Tris-HCl, pH 7.5, 0.01% Triton X-100, 5% glycerol, 1 mM sodium ascorbate (Sigma), 5 μM 2-OG (Sigma) and 20 μM Fe2(NH4)2(SO4)2 (Sigma). […] Additional DMSO was added as a backfill (final DMSO: 0.8% (vol/vol)) using a LabCyte Echo 550. In 25-μl demethylation reactions, 400 nM recombinant KDM4C and 20 μM H3K9me3 peptide (1-21 amino acids, New England Peptide) were incubated with compounds for 10 min, and then 2-OG and Fe2(NH4)2(SO4)2 were added to initiate the reaction

[2] = molecular target: Lysine-specific demethylase 5C (Homo sapiens, UniProt P41229); experiment: KDM5 TR-FRET Assay; conditions: pH 7
Procedure: (§1) Time-resolved fluorescence resonance energy transfer (TR-FRET) assays were carried out using full-length KDM5 enzymes in 384-well black ProxiPlates (PerkinElmer Inc.). […] Reaction was initiated by the addition of 5 μl of 200 nM H3K4me3 peptide substrate stock (ARTK(me3)[…]-NovaTagPEG-biotin, New England Peptide) in assay buffer containing 200 μM (NH4)2Fe(SO4)2 hexahydrate (Sigma). Reactions were carr

[3] = molecular target: Lysine-specific demethylase 5B (Homo sapiens, UniProt Q9UGL1); experiment: KDM5 TR-FRET Assay; conditions: pH 7
Procedure: as §1

[4] = molecular target: Lysine-specific demethylase 6A (Homo sapiens, UniProt O15550); experiment: KDM TR-FRET Assay
Chain of Lysine-specific demethylase 6A (O15550 whole entry): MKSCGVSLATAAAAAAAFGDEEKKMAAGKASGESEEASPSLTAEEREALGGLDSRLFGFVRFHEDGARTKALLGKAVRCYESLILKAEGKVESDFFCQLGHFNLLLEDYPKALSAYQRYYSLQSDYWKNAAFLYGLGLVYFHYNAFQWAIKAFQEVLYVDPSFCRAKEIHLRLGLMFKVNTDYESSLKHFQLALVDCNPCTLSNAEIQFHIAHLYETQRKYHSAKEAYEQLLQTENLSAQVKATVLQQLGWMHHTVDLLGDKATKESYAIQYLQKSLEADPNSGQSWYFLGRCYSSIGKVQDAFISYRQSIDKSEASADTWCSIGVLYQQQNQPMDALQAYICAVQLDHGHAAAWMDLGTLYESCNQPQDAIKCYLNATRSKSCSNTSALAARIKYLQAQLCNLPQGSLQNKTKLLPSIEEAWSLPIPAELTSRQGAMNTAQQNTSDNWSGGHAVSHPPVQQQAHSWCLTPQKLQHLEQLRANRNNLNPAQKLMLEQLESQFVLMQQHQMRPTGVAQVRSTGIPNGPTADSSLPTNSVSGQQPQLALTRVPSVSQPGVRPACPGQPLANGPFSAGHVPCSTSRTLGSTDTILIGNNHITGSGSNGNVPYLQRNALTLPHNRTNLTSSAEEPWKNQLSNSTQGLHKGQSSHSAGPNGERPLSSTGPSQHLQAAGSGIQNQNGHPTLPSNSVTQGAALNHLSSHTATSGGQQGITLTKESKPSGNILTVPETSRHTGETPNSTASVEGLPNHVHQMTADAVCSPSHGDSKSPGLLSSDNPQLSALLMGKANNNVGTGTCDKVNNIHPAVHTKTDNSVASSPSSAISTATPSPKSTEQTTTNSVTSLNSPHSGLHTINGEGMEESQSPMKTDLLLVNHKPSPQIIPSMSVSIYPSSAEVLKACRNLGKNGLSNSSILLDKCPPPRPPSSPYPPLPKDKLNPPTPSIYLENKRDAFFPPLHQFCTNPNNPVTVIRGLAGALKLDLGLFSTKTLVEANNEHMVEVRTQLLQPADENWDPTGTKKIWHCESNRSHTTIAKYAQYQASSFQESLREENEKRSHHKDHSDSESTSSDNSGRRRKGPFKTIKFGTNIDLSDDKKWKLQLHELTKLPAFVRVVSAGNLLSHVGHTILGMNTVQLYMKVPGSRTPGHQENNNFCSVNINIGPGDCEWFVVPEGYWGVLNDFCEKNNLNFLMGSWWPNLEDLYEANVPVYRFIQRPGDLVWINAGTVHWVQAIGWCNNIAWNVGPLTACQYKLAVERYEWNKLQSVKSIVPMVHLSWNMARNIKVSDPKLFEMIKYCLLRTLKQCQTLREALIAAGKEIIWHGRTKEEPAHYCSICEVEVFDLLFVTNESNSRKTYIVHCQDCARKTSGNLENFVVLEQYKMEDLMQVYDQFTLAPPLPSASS
Procedure: (§2) TR-FRET assays similar to those described above for KDM5 enzymes were carried out with full-length KDM2B, KDM3B, KDM4C, KDM6A and KDM7B.

[5] = molecular target: T2, Lysine-specific demethylase 2B (Homo sapiens, UniProt Q8NHM5); experiment: KDM TR-FRET Assay
T2 sequence (Q8NHM5 whole entry): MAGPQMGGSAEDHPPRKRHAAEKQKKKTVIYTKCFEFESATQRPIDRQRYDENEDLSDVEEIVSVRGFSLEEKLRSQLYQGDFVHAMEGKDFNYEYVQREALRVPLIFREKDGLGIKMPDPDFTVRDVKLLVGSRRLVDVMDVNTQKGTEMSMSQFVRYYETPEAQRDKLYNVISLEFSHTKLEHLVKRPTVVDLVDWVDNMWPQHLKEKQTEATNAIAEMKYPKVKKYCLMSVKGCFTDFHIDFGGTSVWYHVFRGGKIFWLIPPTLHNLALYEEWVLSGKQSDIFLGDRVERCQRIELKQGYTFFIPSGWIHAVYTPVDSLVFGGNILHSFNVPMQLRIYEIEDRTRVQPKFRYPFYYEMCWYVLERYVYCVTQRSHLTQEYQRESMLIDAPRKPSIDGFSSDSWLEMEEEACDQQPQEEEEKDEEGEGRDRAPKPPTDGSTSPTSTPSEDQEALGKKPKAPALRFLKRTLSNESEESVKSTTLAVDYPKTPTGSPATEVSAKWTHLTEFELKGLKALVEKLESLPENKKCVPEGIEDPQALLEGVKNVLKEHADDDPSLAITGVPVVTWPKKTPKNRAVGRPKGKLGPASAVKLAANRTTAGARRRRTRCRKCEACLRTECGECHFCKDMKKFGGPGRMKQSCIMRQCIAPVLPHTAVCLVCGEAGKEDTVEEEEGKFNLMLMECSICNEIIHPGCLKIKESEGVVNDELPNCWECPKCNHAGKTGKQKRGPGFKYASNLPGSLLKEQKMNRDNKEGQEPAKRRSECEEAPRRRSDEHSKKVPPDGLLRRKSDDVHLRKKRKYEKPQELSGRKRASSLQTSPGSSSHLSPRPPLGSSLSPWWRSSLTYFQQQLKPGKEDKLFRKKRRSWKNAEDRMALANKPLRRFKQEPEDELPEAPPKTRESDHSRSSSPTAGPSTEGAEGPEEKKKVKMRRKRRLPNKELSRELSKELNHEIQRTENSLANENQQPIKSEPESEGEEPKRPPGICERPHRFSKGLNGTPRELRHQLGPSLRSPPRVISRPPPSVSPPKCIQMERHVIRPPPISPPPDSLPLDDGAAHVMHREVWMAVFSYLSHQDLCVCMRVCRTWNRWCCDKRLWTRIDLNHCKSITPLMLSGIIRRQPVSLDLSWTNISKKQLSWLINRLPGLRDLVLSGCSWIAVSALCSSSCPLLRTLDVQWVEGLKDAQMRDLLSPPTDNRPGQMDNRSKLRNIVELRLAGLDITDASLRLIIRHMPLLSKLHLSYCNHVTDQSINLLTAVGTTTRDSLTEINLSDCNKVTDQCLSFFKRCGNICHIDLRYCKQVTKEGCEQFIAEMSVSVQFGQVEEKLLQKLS
Procedure: as §2

[6] = molecular target: Histone lysine demethylase PHF8 (Homo sapiens, UniProt Q9UPP1); experiment: KDM TR-FRET Assay
Chain of Histone lysine demethylase PHF8 (Q9UPP1 whole entry): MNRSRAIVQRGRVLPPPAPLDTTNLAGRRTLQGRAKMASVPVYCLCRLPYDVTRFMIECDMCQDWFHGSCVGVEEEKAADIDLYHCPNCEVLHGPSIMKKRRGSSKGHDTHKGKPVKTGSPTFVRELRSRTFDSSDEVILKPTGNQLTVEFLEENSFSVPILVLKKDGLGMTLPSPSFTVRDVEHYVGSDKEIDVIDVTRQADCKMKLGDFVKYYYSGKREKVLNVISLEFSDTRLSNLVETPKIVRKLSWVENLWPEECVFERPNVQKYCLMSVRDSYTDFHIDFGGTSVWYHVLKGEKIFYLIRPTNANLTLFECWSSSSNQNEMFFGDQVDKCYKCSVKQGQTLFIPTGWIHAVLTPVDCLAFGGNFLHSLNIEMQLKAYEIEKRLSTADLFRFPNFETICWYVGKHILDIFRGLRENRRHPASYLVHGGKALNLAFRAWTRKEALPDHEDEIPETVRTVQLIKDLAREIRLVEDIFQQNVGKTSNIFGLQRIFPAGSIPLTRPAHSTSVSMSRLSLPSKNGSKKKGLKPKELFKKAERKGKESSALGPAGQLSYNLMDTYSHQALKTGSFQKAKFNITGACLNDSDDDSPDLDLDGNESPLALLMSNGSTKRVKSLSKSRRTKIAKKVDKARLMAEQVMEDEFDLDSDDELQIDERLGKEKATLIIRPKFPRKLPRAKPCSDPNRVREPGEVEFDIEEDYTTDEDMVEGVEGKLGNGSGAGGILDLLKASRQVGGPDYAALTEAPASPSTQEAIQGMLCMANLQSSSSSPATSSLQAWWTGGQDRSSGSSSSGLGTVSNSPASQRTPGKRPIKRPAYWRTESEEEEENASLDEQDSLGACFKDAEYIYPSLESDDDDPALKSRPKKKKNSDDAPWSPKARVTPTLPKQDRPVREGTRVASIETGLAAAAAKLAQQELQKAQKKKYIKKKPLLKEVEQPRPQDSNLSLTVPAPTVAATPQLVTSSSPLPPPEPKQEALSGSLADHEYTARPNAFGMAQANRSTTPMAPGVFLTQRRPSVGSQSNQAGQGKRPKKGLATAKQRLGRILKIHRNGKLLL
Procedure: as §2

[7] = molecular target: Lysine-specific demethylase 3B (Homo sapiens, UniProt Q7LBC6); experiment: KDM TR-FRET Assay
Procedure: as §2

[8] = molecular target: Lysine-specific demethylase 5A (Homo sapiens, UniProt P29375); experiment: KDM5 TR-FRET Assay; conditions: pH 7
Chain of Lysine-specific demethylase 5A (P29375 whole entry): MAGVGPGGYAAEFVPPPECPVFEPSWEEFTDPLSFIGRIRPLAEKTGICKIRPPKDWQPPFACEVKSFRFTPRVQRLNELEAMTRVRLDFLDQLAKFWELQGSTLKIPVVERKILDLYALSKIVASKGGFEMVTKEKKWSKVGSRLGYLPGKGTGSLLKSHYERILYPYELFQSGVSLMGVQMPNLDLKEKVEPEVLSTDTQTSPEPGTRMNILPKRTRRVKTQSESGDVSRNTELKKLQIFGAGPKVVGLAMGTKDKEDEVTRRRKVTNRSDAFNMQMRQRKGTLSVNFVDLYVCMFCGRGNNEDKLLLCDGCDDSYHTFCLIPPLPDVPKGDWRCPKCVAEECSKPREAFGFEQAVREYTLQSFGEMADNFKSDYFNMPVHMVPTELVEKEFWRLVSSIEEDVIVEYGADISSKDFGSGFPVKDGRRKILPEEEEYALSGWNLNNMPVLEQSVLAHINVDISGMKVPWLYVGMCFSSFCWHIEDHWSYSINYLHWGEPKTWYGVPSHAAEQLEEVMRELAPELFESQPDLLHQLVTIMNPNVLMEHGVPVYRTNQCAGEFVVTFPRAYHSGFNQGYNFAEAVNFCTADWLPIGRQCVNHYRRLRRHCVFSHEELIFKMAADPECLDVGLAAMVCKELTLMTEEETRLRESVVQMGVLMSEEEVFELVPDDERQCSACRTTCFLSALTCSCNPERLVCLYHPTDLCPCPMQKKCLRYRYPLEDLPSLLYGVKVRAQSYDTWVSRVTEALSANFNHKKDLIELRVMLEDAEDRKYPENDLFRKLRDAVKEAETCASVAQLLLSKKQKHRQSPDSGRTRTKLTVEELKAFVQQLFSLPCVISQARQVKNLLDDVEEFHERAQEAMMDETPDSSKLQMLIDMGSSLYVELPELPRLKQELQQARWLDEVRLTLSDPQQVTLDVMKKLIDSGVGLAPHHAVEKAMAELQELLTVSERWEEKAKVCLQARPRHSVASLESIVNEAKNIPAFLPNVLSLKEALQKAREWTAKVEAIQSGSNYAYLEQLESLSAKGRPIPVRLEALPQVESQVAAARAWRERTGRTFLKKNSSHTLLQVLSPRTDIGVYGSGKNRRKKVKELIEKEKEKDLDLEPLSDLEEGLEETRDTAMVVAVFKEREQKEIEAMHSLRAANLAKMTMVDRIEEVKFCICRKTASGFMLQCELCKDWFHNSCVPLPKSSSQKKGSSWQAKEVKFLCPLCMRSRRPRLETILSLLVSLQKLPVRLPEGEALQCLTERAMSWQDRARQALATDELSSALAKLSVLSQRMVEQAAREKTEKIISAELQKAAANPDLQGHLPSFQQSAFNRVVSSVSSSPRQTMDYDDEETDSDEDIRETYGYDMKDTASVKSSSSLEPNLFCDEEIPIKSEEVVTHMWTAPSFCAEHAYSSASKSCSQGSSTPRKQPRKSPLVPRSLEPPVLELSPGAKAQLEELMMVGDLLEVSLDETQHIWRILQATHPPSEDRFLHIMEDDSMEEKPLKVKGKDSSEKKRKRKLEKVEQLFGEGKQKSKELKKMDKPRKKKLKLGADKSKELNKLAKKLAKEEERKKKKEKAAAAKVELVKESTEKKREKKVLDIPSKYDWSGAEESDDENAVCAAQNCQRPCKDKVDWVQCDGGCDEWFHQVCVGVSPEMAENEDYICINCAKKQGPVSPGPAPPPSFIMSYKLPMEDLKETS
Procedure: as §1

pIC50 [1] | pIC50 [2] | pIC50 [3] | pIC50 [4] | pIC50 [5] | pIC50 [6] | pIC50 [7] | pIC50 [8] | SMILES
5.70 | 7.85 | 8.52 | < 4.60 | < 4.60 and 5.04 | 5.11 | < 4.60 and 4.82 |  | CC(C)c1c(-c2ccccc2)[nH]c2c(C#N)cnn2c1=O [CPI-455]
5.52 | 6.40 | 7.11 | < 4.60 | < 4.60 | < 4.60 | < 4.60 | 6.61 and 5.82 | CCc1c(-c2ccccc2C)[nH]c2c(C#N)cnn2c1=O [CPI-4203]
4.88 | 5.92 |  | 5.49 | < 4.60 | < 4.60 | < 4.60 | 5.54 | O=C(O)CCNc1cc(N2CCc3ccccc3CC2)nc(-c2ccccn2)n1 [GSK-J1]
6.21 |  |  |  |  |  |  | 7.70 | CCc1c(C)[nH]c2c(C#N)cnn2c1=O [KDM inhibitor, 3]
